The values below come from ChEMBL document CHEMBL1201862, “PubChem BioAssay data set” (2004).

Molecules are shown by their SMILES.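 Five compound concentrations were applied to cells in 96-well plates for 48 hours; endpoints were derived by simple linear interpolation of the resulting dose-response curve. GI50 marks 50% less growth.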 Calls of active or inactive are those of the source. Rule as the data show it: active = GI50 up to about 1.1 µM and inactive = higher. Non-standard residues stand in square brackets, D forms with d. Residues, ends and D or L forms follow the SMILES beside them. *: point of attachment. hSer = N[CH](CCO)C(=O)O; Boc = CC(C)(C)OC(=O)*

Some test systems named below: NCI/ADR-RES; PC-3; MOLT-4; HT-29; U-251; SK-MEL-2; MDA-MB-231; SNB-19; BT-549; UACC-62; HOP-92; NCI-H226; TK-10; HCC 2998; RPMI-8226; EKVX; HOP-62; Malme-3M; OVCAR-3; DLD-1.
Assay in all cases: growth of human tumour cells (NCI), 48 h

As to `COc1ccc2c(c1)C(N)=C(c1ccccc1OC)C2=O`, the GI50 with NCI/ADR-RES was > 100 µM (inactive); in the experiment with PC-3, 85.7 µM (inactive); in the experiment on MOLT-4 it was 75.7 µM (inactive); in the experiment on HT-29, > 100 µM (inactive); in the experiment on U-251, > 100 µM (inactive); with SK-MEL-2 it was > 100 µM (inactive). The GI50 in the experiment on MDA-MB-231 was > 100 µM (inactive); with SNB-19 it was > 100 µM (inactive); in the experiment on BT-549 it was > 100 µM (inactive); with UACC-62, 77.8 µM (inactive); with HOP-92, > 100 µM (inactive); with NCI-H226, > 100 µM (inactive). Moreover, the GI50 in the experiment with TK-10, with HCC 2998, with RPMI-8226, with EKVX, in the experiment on HOP-62 and in the experiment on Malme-3M was > 100 µM (inactive) each time. Further, the GI50 in the experiment with OVCAR-3 is > 100 µM (inactive).

Regarding `C/C(=N\NC(=O)N/N=C(\C)c1ccccn1)c1ccccn1`, the GI50 in the experiment on NCI/ADR-RES is 8.83 µM (inactive); in the experiment on PC-3, 37.2 µM (inactive); with MOLT-4, 0.555 µM (active); with HT-29, < 0.01 µM (active); in the experiment with U-251, 20.3 µM (inactive); in the experiment on SK-MEL-2, > 100 µM (inactive). The GI50 in the experiment with MDA-MB-231 is 0.333 µM (active); in the experiment on SNB-19, 2.19 µM (inactive); with BT-549 it was 1.15 µM (inactive); with UACC-62, 40.9 µM (inactive); in the experiment with HOP-92 it was 0.279 µM (active); in the experiment with NCI-H226 it was 31 µM (inactive). Moreover, the GI50 with TK-10 was 0.11 µM (active); in the experiment on HCC 2998, 0.52 µM (active); in the experiment with RPMI-8226 it was 0.0792 µM (active); with EKVX it was 19.3 µM (inactive); in the experiment on HOP-62, 0.512 µM (active); with Malme-3M, > 100 µM (inactive). Moreover, the GI50 in the experiment with OVCAR-3 is 45.1 µM (inactive).

As to `COc1ccc(C2ON(c3cccc(C)n3)CC=C2C)cc1` (centres undefined), the GI50 with MOLT-4 is 36.4 µM (inactive); in the experiment on HT-29 it was 32 µM (inactive); in the experiment with U-251, 32.4 µM (inactive); in the experiment on SK-MEL-2, 27.4 µM (inactive); in the experiment with DLD-1, 35.7 µM (inactive); in the experiment on SNB-19 it was 97.1 µM (inactive). In addition, the GI50 was 40.7 µM (inactive) with UACC-62; > 100 µM (inactive) in the experiment with NCI-H226; 59.3 µM (inactive) with HCC 2998; 30.9 µM (inactive) in the experiment on RPMI-8226; > 100 µM (inactive) with EKVX; 65.3 µM (inactive) in the experiment on HOP-62. The values for the GI50 with Malme-3M and in the experiment with OVCAR-3 were 36.6 µM (inactive) and > 100 µM (inactive), respectively.

For `c1cc(-c2ccc(-c3ccc(C4=NC5CCCCC5N4)cc3)o2)ccc1C1=NC2CCCCC2N1` (centres undefined), the GI50 was 28.4 µM (inactive) in the experiment on NCI/ADR-RES; 1.46 µM (inactive) with PC-3; 1.8 µM (inactive) in the experiment with MOLT-4; 1.39 µM (inactive) in the experiment with HT-29; 1.44 µM (inactive) in the experiment with U-251; 1.82 µM (inactive) with SK-MEL-2. Also, the GI50 with MDA-MB-231 is 1.5 µM (inactive); with SNB-19, 1.47 µM (inactive); in the experiment with BT-549, 2.11 µM (inactive); with UACC-62, 1.71 µM (inactive); in the experiment with HOP-92, 1.43 µM (inactive); with NCI-H226, 1.85 µM (inactive). Besides, the GI50 is 5.19 µM (inactive) in the experiment with TK-10; 1.3 µM (inactive) in the experiment on HCC 2998; 1.76 µM (inactive) with RPMI-8226; 1.69 µM (inactive) in the experiment with EKVX; 1.5 µM (inactive) in the experiment on HOP-62; 1.73 µM (inactive) in the experiment on Malme-3M. Also, in the experiment with OVCAR-3, the GI50 is 1.85 µM (inactive).

Regarding `Nc1ncnc2nn(C3OC(CO)C(O)C3O)nc12` (centres undefined), the GI50 in the experiment with NCI/ADR-RES was 9.73 µM (inactive); in the experiment with PC-3, 17.3 µM (inactive); in the experiment on MOLT-4, 15.1 µM (inactive); in the experiment with HT-29, 8.81 µM (inactive); with U-251 it was 23.1 µM (inactive); in the experiment on SK-MEL-2, 2.99 µM (inactive). Further, the GI50 was 3.75 µM (inactive) in the experiment with MDA-MB-231; 29.6 µM (inactive) with SNB-19; 24.2 µM (inactive) in the experiment with BT-549; 25.4 µM (inactive) in the experiment on UACC-62; 20 µM (inactive) in the experiment on HOP-92; 5.36 µM (inactive) with NCI-H226. In addition, the GI50 with TK-10 is 3.56 µM (inactive); with HCC 2998 it was 7.6 µM (inactive); in the experiment with RPMI-8226 it was 3.64 µM (inactive); with EKVX, 41.3 µM (inactive); with HOP-62, 14 µM (inactive); with Malme-3M, 20.5 µM (inactive). In addition, the GI50 with OVCAR-3 was 7.57 µM (inactive).

For the molecule `Cc1ccc(C)n1-c1ccccc1C1C=Cn2c3c1c(=O)c(OC(C)C)c(OC(C)C)c-3n[nH]c2=O` (centres undefined), the GI50 was 32.6 µM (inactive) in the experiment on NCI/ADR-RES; 10.3 µM (inactive) in the experiment with PC-3; 6.62 µM (inactive) with MOLT-4; 19.9 µM (inactive) with HT-29; 32.7 µM (inactive) in the experiment with U-251; 20 µM (inactive) with SK-MEL-2. In addition, the GI50 in the experiment with MDA-MB-231 was 33.6 µM (inactive); in the experiment with SNB-19, 76.2 µM (inactive); in the experiment on BT-549 it was 32.7 µM (inactive); in the experiment on UACC-62, 39.4 µM (inactive); in the experiment with HOP-92, 84.7 µM (inactive); with NCI-H226, 21.4 µM (inactive). The GI50 in the experiment with TK-10 is 44 µM (inactive); in the experiment on HCC 2998 it was 23.6 µM (inactive); in the experiment on RPMI-8226, 8.3 µM (inactive); in the experiment on EKVX it was 28.4 µM (inactive); in the experiment on HOP-62, 40 µM (inactive); with Malme-3M, 18.7 µM (inactive). For the same molecule, in the experiment on OVCAR-3, the GI50 is 35.5 µM (inactive).

Consider `Nc1ccc(S(=O)(=O)Nc2nccs2)cc1` [SULFATHIAZOLE], for which the GI50 with NCI/ADR-RES, in the experiment with PC-3, with MOLT-4, in the experiment with HT-29, in the experiment on U-251 and with SK-MEL-2 was > 100 µM (inactive) throughout. Moreover, the GI50 with MDA-MB-231 was > 100 µM (inactive); with SNB-19, > 100 µM (inactive); in the experiment with BT-549 it was > 100 µM (inactive); in the experiment with UACC-62 it was > 100 µM (inactive); in the experiment on HOP-92, 0.0101 µM (active); in the experiment with NCI-H226, > 100 µM (inactive). For the same molecule, the GI50 in the experiment with TK-10, in the experiment on HCC 2998, in the experiment with RPMI-8226, in the experiment on EKVX, in the experiment on HOP-62 and in the experiment on Malme-3M was > 100 µM (inactive) each time. The GI50 in the experiment on OVCAR-3 is > 100 µM (inactive).

Turning to `O=C1N/C(=N/N=C/C(O)C(O)C(O)C(O)CO)N/C1=C\c1cccs1` (centres undefined), the GI50 in the experiment on NCI/ADR-RES, with PC-3, in the experiment with MOLT-4, in the experiment on HT-29, in the experiment on U-251 and with SK-MEL-2 was > 100 µM (inactive) each time. Besides, the GI50 in the experiment on MDA-MB-231, with SNB-19, with BT-549, with UACC-62, in the experiment with HOP-92 and in the experiment on NCI-H226 was > 100 µM (inactive) in each case. The GI50 with TK-10 is > 100 µM (inactive); in the experiment with HCC 2998, > 100 µM (inactive); with RPMI-8226, > 100 µM (inactive); in the experiment on EKVX it was 87.1 µM (inactive); in the experiment with HOP-62, > 100 µM (inactive); in the experiment with Malme-3M, > 100 µM (inactive). Besides, the GI50 in the experiment with OVCAR-3 was > 100 µM (inactive).

Turning to `C\C=C/C=C/C=C/C(=O)O`, the GI50 in the experiment on MOLT-4, in the experiment with HT-29, in the experiment with U-251, with SK-MEL-2, in the experiment on DLD-1 and with SNB-19 was > 100 µM (inactive) throughout. Also, the GI50 with UACC-62 is > 100 µM (inactive); in the experiment with NCI-H226, > 100 µM (inactive); with HCC 2998, > 100 µM (inactive); in the experiment with RPMI-8226 it was > 100 µM (inactive); in the experiment on EKVX, 67.3 µM (inactive); in the experiment with HOP-62 it was > 100 µM (inactive). In addition, the GI50 with Malme-3M and with OVCAR-3 was > 100 µM (inactive) each time.

As for `O=c1c2ccccc2nc(Cc2nc(-c3ccc(Cl)cc3)cs2)n1-c1ccc(Cl)cc1`, the GI50 in the experiment with NCI/ADR-RES was 57.5 µM (inactive); in the experiment on PC-3, 48 µM (inactive); in the experiment with MOLT-4 it was 30.9 µM (inactive); in the experiment with HT-29, 85.7 µM (inactive); with U-251 it was 54.5 µM (inactive); with SK-MEL-2, 28.1 µM (inactive). Also, the GI50 is > 100 µM (inactive) in the experiment with MDA-MB-231; > 100 µM (inactive) with SNB-19; 82.2 µM (inactive) with BT-549; 5.78 µM (inactive) in the experiment with UACC-62; 9.64 µM (inactive) in the experiment on HOP-92; 88.5 µM (inactive) with NCI-H226. Besides, the GI50 was > 100 µM (inactive) in the experiment with TK-10; 80 µM (inactive) with HCC 2998; 23.8 µM (inactive) in the experiment on RPMI-8226; 64.6 µM (inactive) with EKVX; > 100 µM (inactive) in the experiment with HOP-62; > 100 µM (inactive) in the experiment on Malme-3M. Moreover, the GI50 with OVCAR-3 was 94.2 µM (inactive).

`COCCC(NC(=O)C(CC(C)C)NC(=O)OC(C)(C)C)C(N)=O` (stereo not drawn) (Boc-Leu-[hSer](Me)-NH2; configuration not given here): the GI50 in the experiment with NCI/ADR-RES, in the experiment on PC-3, in the experiment on MOLT-4, in the experiment on HT-29, with U-251 and with SK-MEL-2 was > 100 µM (inactive) in each case. In addition, the GI50 with MDA-MB-231, in the experiment on SNB-19, in the experiment on BT-549, in the experiment on UACC-62, in the experiment on HOP-92 and with NCI-H226 was > 100 µM (inactive) in each case. Moreover, the GI50 in the experiment with TK-10, with HCC 2998, in the experiment on RPMI-8226, in the experiment with EKVX, in the experiment on HOP-62 and with Malme-3M was > 100 µM (inactive) throughout. Also, the GI50 in the experiment with OVCAR-3 is > 100 µM (inactive).
